In ChEMBL document CHEMBL5543129, “Peptide Inhibitor Targeting the Extraterminal Domain in BRD4 Potently Suppresses Breast Cancer Both In Vitro and In Vivo” (J Med Chem, 2024) one finds fold change (FC) data, which are given here for one compound.

Molecules are shown by their SMILES. Square brackets hold non-standard residues; d marks the D form. Peptide text beside a SMILES is read from it. Hyp = O=C(O)[C@@H]1C[C@@H](O)CN1; Ahx = NCCCCCC(=O)O

What all share (format): cell-based
Assay [1] addresses T1, von Hippel-Lindau disease tumor suppressor/Bifunctional arginine demethylase and lysyl-hydroxylase JMJD6 (Homo sapiens) (UniProt P40337+Q6NYC1). As to the kind of experiment: Protac activity at VHL/JMJD6 in human MCF7 cells assessed as degradation by measuring fold change in remaining JMJD6 level at 2.5 uM incubated for 24 hrs by immunoblotting analysis (reference value: […]).

The target of assay [2] is T1, von Hippel-Lindau disease tumor suppressor/Bifunctional arginine demethylase and lysyl-hydroxylase JMJD6 (Homo sapiens). As to the kind of experiment: Protac activity at VHL/JMJD6 in human MCF7 cells assessed as degradation by measuring fold change in remaining JMJD6 level at 10 uM incubated for 12 hrs by immunoblotting analysis (reference value: […]).
For assay [3] the target is unchanged. As to the kind of experiment: Protac activity at VHL/JMJD6 in human MCF7 cells assessed as degradation by measuring fold change in remaining JMJD6 level at 10 uM incubated for 24 hrs in presence of MG132 by immunoblotting analysis (reference value: […]).
For assay [4], the target named is T2, von Hippel-Lindau disease tumor suppressor/Bromodomain-containing protein 4 (Homo sapiens) (UniProt O60885+P40337). In words: PROTAC activity at VHL/His-tagged BDR4 ET domain (601 to 683 residues) (unknown origin) transfected in MCF7 cells assessed as degradation by measuring fold change in remaining BRD4 level at 5 uM incubated for 24 hrs by immunoblotting analysis (reference value: […]).
T2 sequence (P40337 whole entry, looked up, other chains not shown, the tested form may be a part): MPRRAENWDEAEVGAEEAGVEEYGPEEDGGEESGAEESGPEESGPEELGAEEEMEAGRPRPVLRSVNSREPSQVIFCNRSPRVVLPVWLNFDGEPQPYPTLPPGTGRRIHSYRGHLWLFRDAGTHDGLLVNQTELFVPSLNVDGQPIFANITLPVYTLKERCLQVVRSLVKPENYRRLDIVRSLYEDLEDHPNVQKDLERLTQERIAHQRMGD

The target in assay [5] is T2, von Hippel-Lindau disease tumor suppressor/Bromodomain-containing protein 4 (Homo sapiens). In words: PROTAC activity at VHL/His-tagged BDR4 ET domain (601 to 683 residues) (unknown origin) transfected in MCF7 cells assessed as degradation by measuring fold change in remaining BRD4 level at 10 uM incubated for 24 hrs by immunoblotting analysis (reference value: […]).

For assay [6] the target is unchanged. As to the kind of experiment: PROTAC activity at VHL/His-tagged BDR4 ET domain (601 to 683 residues) (unknown origin) transfected in MCF7 cells assessed as degradation by measuring fold change in remaining BRD4 level at 20 uM incubated for 24 hrs by immunoblotting analysis (reference value: […]).
The target is the same in assay [7]. In words: PROTAC activity at VHL/His-tagged BDR4 ET domain (1 to 470 residues) (unknown origin) transfected in MCF7 cells assessed as degradation by measuring fold change in remaining BRD4 level at 5 uM incubated for 24 hrs by immunoblotting analysis (reference value: […]).
The target is the same in assay [8]. In words: PROTAC activity at VHL/His-tagged BDR4 ET domain (1047 to 1362 residues) (unknown origin) transfected in MCF7 cells assessed as degradation by measuring fold change in remaining BRD4 level at 10 uM incubated for 24 hrs by immunoblotting analysis (reference value: […]).

On to `CC[C@H](C)[C@H](NC(=O)[C@H](Cc1ccc(O)cc1)NC(=O)[C@@H]1C[C@@H](O)CN1C(=O)[C@H](C)NC(=O)[C@@H](NC(=O)CCCCCNC(=O)[C@H](CCC(=O)O)NC(=O)CNC(=O)[C@H](CS)NC(=O)[C@H](CCCCN)NC(=O)[C@H](Cc1ccccc1)NC(=O)[C@H](CCCCN)NC(=O)[C@H](CCC(N)=O)NC(=O)[C@H](CC(N)=O)NC(=O)[C@H](CCCNC(=N)N)NC(=O)[C@H](CCCNC(=N)N)NC(=O)[C@H](CCCNC(=N)N)NC(=O)[C@H](CCCNC(=N)N)NC(=O)[C@H](CCC(N)=O)NC(=O)[C@H](CCCNC(=N)N)NC(=O)[C@H](CCCNC(=N)N)NC(=O)[C@H](CCCCN)NC(=O)[C@H](CCCCN)NC(=O)[C@H](CCCNC(=N)N)NC(=O)CNC(=O)[C@@H](N)Cc1ccc(O)cc1)[C@@H](C)CC)C(=O)O` (H-YGRKKRRQRRRRNQKFKCGE[Ahx]IA[Hyp]YI-OH), for which the fold change (FC) amounted to 0.91 in assay [1]; 0.85 in assay [2]; 0.88 in assay [3]; 0.72 in assay [4]; 0.47 in assay [5]; 0.37 in assay [6]. The figures for the fold change (FC) in assay [7] and in assay [8] were 1.09 and 1, respectively.
